Consider 1 cell line from the supplement of paper PMC10307832.

Common to all, as to assay: relative viability (nuclei count vs DMSO), 5 days (fraction); higher = more cells survive
Compound in the test “Daporinad + Navitoclax”: O=C(/C=C/c1cccnc1)NCCCCC1CCN(C(=O)c2ccccc2)CC1 [Daporinad] + CC1(C)CCC(c2ccc(Cl)cc2)=C(CN2CCN(c3ccc(C(=O)NS(=O)(=O)c4ccc(N[C@H](CCN5CCOCC5)CSc5ccccc5)c(S(=O)(=O)C(F)(F)F)c4)cc3)CC2)C1 [Navitoclax] (partner 0.5 µM)
In a few lines:
(§1)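 Medians of duplicate plates are given as relative viability. That measure is the nuclei count in treated wells divided by the count in vehicle wells. Counts were taken on 4× images of lung cancer cell lines in 1536-well plates, 5 days after pin-tool dosing the day after seeding with one drug alone or a fixed anchor-drug dose plus five library-drug doses (not always all listed) in √10 steps.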

Compound in the test “Daporinad + Pictilisib”: O=C(/C=C/c1cccnc1)NCCCCC1CCN(C(=O)c2ccccc2)CC1 [Daporinad] + CS(=O)(=O)N1CCN(Cc2cc3nc(-c4cccc5[nH]ncc45)nc(N4CCOCC4)c3s2)CC1 [Pictilisib] (partner 1 µM)
Put shortly:
as §1

Compound in the test “R406 + Lapatinib”: COc1cc(Nc2ncc(F)c(Nc3ccc4c(n3)NC(=O)C(C)(C)O4)n2)cc(OC)c1OC [R406] + CS(=O)(=O)CCNCc1ccc(-c2ccc3ncnc(Nc4ccc(OCc5cccc(F)c5)c(Cl)c4)c3c2)o1 [Lapatinib] (partner 2 µM)
In a few lines: as §1

Compound in the test “Daporinad + Pemetrexed”: O=C(/C=C/c1cccnc1)NCCCCC1CCN(C(=O)c2ccccc2)CC1 [Daporinad] + Nc1nc2[nH]cc(CCc3ccc(C(=O)N[C@@H](CCC(=O)O)C(=O)O)cc3)c2c(=O)[nH]1 [Pemetrexed] (partner 0.2 µM)
In a few lines: as §1

For the cell line UMC-11, the relative viability with Daporinad + Navitoclax (first compound 0.0005 µM) is 0.335; with Daporinad + Navitoclax (first compound 0.001581 µM) it was 0.33; with Daporinad + Navitoclax (first compound 0.005 µM), 0.377; with Daporinad + Navitoclax (first compound 0.01581 µM), 0.288; with Daporinad + Pictilisib (first compound 0.0005 µM), 0.908; with Daporinad + Pictilisib (first compound 0.001581 µM), 0.668. Also, the relative viability with Daporinad + Pictilisib (first compound 0.005 µM) was 0.928; with Daporinad + Pictilisib (first compound 0.01581 µM), 0.993; in the test with R406 + Lapatinib (first compound 0.08 µM), 0.952; with R406 + Lapatinib (first compound 0.253 µM), 1.08; with R406 + Lapatinib (first compound 0.8 µM), 1.06; with R406 + Lapatinib (first compound 2.53 µM), 0.241. In addition, the relative viability was 0.378 in the test with R406 + Lapatinib (first compound 8 µM); 0.746 with Daporinad + Pemetrexed (first compound 0.0005 µM); 0.83 in the test with Daporinad + Pemetrexed (first compound 0.001581 µM); 0.847 with Daporinad + Pemetrexed (first compound 0.005 µM); 0.773 in the test with Daporinad + Pemetrexed (first compound 0.01581 µM).
